Consider 64 molecules from patent US20100286173A1 (priority 2008, published 2010).

SMILES strings stand for the structures.

A short description of the first series: Measurement of logP values by HPLC on reversed phase columns (EEC directive 79/831 Annex V.A8). Format: physicochemical. The following applies: pH 2.7, 0.1% formic acid in water / acetonitrile gradient 10% to 95%.
As to `CCCCCOC(=O)Nc1cccc(CON=C(c2cc(C)ccc2F)c2nnnn2C)n1` [Example 121], the logp is reported as 4.19. On to `CCCCCC(=O)Nc1cccc(CON=C(c2cc(C)cc(F)c2)c2nnnn2C)n1` [Example 123], for which the logp is 4.14. Turning to `Cc1ccc(C(F)(F)F)cc1C(=NOCc1cccc(NC(=O)CC(C)C)n1)c1nnnn1C` [Example 67], the logp came to 3.62.

Regarding `CCCCCC(=O)Nc1cccc(CON=C(c2ccc(C(F)(F)F)cc2F)c2nnnn2C)n1` [Example 26], the logp is listed as 4.29. Take `CC#CCOC(=O)Nc1cccc(CON=C(c2ccc(F)c(C)c2)c2nnnn2C)n1` [Example 101]: the logp is 3.67.

The molecule `Cc1ccc(C(=NOCc2cccc(NC(=O)CC(C)C)n2)c2nnnn2C)cc1C(F)(F)F` [Example 69] had a logp of 4.14. On to `Cc1cc(C(=NOCc2csc(N)n2)c2nnnn2C)ccc1F` [Example 163], for which the Log p was 1.75. `Cc1cc(OC(F)(F)F)ccc1C(=NOCc1cccc(NC(=O)CC(C)C)n1)c1nnnn1C` [Example 34] displayed a logp of 4.16.

Consider `Cc1cccc(C(=NOCc2cccc(NC(=O)CC(C)C)n2)c2nnnn2C)c1F` [Example 33], for which the logp came out at 3.51.

Consider `CCCCCOC(=O)Nc1cccc(CON=C(c2ccc(C(F)(F)F)cc2F)c2nnnn2C)n1` (single isomer, unassigned) [Example 23], for which the logp is 4.78.

Turning to `CCCCCOC(=O)Nc1cccc(CON=C(c2cccc(C(F)(F)F)c2C)c2nnnn2C)n1` [Example 44], the logp was 4.78. Take `COc1ccccc1CC(=O)Nc1cccc(CON=C(c2ccc(F)c(C)c2)c2nnnn2C)n1` [Example 61]: the logp was 3.9.

The molecule `Cc1cc(F)cc(C(=NOCc2cccc(N)n2)c2nnnn2C)c1` [Example 135] had a Log p of 1.46. In turn, `CCCCCOC(=O)Nc1cccc(CON=C(c2ccc(C(F)(F)F)c(Cl)c2)c2nnnn2C)n1` [Example 86] had a logp of 5.2. Take `Cc1ccc(C(=NOCc2cccc(NC(=O)CC(C)C)n2)c2nnnn2C)c(Cl)c1` [Example 46]: the logp came out at 3.73. On the same count and under the same terms, as for `Cn1nnnc1C(=NOCc1cccc(N)n1)c1cc(F)cc(C(F)(F)F)c1` [Example 127], the figure is 1.75; as for `CCCCCC(=O)Nc1cccc(CON=C(c2cc(C(F)(F)F)ccc2C)c2nnnn2C)n1` [Example 111], 4.34. Turning to `CCCCCOC(=O)Nc1ccnc(CON=C(c2ccc(C)c(C(F)(F)F)c2)c2nnnn2C)n1` [Example 122], the logp was 4.59.

With `CCCCCC(=O)Nc1cccc(CON=C(c2ccc(F)c(C)c2)c2nnnn2C)n1` [Example 119], the logp is recorded as 4.11. Still for that read-out and setting: the same measure for `CCCCCOC(=O)Nc1cccc(CON=C(c2ccc(C(F)(F)F)c(Cl)c2)c2nnnn2C)n1` [Example 79]: 5.23. The molecule `Cc1nc(N)cc(CON=C(c2ccc(F)c(Oc3ccccc3)c2)c2nnn(C)n2)n1` [Example 139] showed a Log p of 1.73. With `Cn1nnnc1C(=NOCc1csc(N)n1)c1cc(F)cc(C(F)(F)F)c1` [Example 131], the logp came out at 2.14. Turning to `CCCCCC(=O)Nc1cccc(CON=C(c2cc(C(F)(F)F)ccc2Cl)c2nnnn2C)n1` [Example 106], the logp was 4.39.

For the molecule `CCCCCC(=O)Nc1cccc(CON=C(c2cc(C)ccc2F)c2nnnn2C)n1` [Example 100], the logp is 3.92. As for `Cn1nnnc1C(=NOCc1csc(N)n1)c1ccc(F)c(Oc2ccccc2)c1` [Example 149], the Log p is 2.25.

Molecule `CCCCCOC(=O)Nc1cccc(CON=C(c2ccc(C)c(C(F)(F)F)c2)c2nnnn2C)n1` [Example 78] showed a logp of 5.05. Take `Cc1ccc(C(=NOCc2cccc(NC(=O)CC(C)C)n2)c2nnnn2C)cc1C(F)(F)F` [Example 43]: the logp is given as 4.16. Same read-out and setting: as for `C#CCCOC(=O)Nc1cccc(CON=C(c2ccc(F)c(C)c2)c2nnnn2C)n1` [Example 53], the figure is 3.55; as for `Cc1cc(C)cc(C(=NOCc2cccc(N)n2)c2nnnn2C)c1` [Example 125], 1.81. In the case of `Cc1nc(N)cc(CON=C(c2ccc(F)c(Oc3ccccc3)c2)c2nnnn2C)n1` [Example 129], the logp was determined as 1.75. The same measure, in the same setting: as for `Cc1ccc(C(F)(F)F)cc1C(=NOCc1cccc(NC(=O)CC(C)C)n1)c1nnnn1C` [Example 64], the figure is 3.94. In turn, `Cc1ccc(C(=NOCc2cccc(N)n2)c2nnnn2C)cc1C(F)(F)F` [Example 162] showed a Log p of 2.10.

With `Cc1cc(C(=NOCc2cccc(NC(=O)CC(C)C)n2)c2nnnn2C)ccc1F` [Example 37], the logp is 3.67. On the same count and under the same terms, as for `CCCCCOC(=O)Nc1cccc(CON=C(c2ccc(C)cc2Cl)c2nnnn2C)n1` [Example 91], the figure is 4.7. Take `CCC#Cc1nc(CON=C(c2ccc(F)c(C)c2)c2nnnn2C)cs1` [Example 156]: the Log p is recorded as 4.09. As for `Cc1cc(C(=NOCc2csc(NCCC3CCCCC3)n2)c2nnnn2C)ccc1F` [Example 151], the Log p worked out at 4.36. Consider `Cc1ccc(Cl)c(C(=NOCc2cccc(NC(=O)CC(C)C)n2)c2nnnn2C)c1` [Example 62], for which the logp was 3.53. Molecule `Cc1ccc(C(=NOCc2cccc(NC(=O)CC(C)C)n2)c2nnnn2C)c(Cl)c1` [Example 51] displayed a logp of 3.53. Turning to `CCCCCOC(=O)Nc1cccc(CON=C(c2cc(C)cc(C)c2)c2nnnn2C)n1` [Example 39], the logp is 4.86.

Molecule `CCCCCC(=O)Nc1cccc(CON=C(c2ccc(C)c(C(F)(F)F)c2)c2nnnn2C)n1` [Example 118] displayed a logp of 4.56. With `Cc1cc(C(=NOCc2cccc(NC(=O)CCC3CCCC3)n2)c2nnnn2C)ccc1F` [Example 58], the logp is recorded as 4.56. `Cc1cc(C(=NOCc2cccc(N)n2)c2nnnn2C)ccc1F` [Example 159] had a Log p of 1.50. Turning to `COc1cccc(CC(=O)Nc2cccc(CON=C(c3ccc(F)c(C)c3)c3nnnn3C)n2)c1` [Example 60], the logp was 3.72.

Turning to `CCCCC(=O)Nc1ccnc(CON=C(c2ccc(C)c(C(F)(F)F)c2)c2nnnn2C)n1` [Example 90], the logp stood at 3.94. Still for that read-out and setting: as for `Cc1c(F)cccc1C(=NOCc1cccc(NC(=O)CC(C)C)n1)c1nnnn1C` [Example 73], the figure is 3.53. In turn, `Cc1ccc(C(F)(F)F)cc1C(=NOCc1cccc(N)n1)c1nnnn1C` [Example 124] showed a logp of 1.73. As for `Cn1nnc(C(=NOCc2csc(N)n2)c2ccc(F)c(Oc3ccccc3)c2)n1` [Example 140], the Log p was 2.23. As to `CC(C)CC(=O)Nc1cccc(CON=C(c2ccc(F)c(C(F)(F)F)c2)c2nnnn2C)n1` [Example 66], the logp is 3.94.

On to `Cc1ccc(C(=NOCc2cccc(NC(=O)CC(C)C)n2)c2nnnn2C)c(F)c1` [Example 38], for which the logp is recorded as 3.53.

Regarding `CCCC(=O)Nc1nc(CON=C(c2ccc(F)c(Oc3ccccc3)c2)c2nnnn2C)cs1` [Example 146], the Log p is on record as 3.35. Molecule `CCCCCOC(=O)Nc1ccnc(CON=C(c2ccc(C)c(C(F)(F)F)c2)c2nnnn2C)n1` [Example 52] registered a logp of 4.62.

`Cn1nnnc1C(=NOCc1csc(NC(=O)C(C)(C)C)n1)c1ccc(F)c(Oc2ccccc2)c1` [Example 147] yielded a Log p of 4.05. On to `CCCCCC(=O)Nc1cccc(CON=C(c2cc(F)cc(C(F)(F)F)c2)c2nnnn2C)n1` [Example 45], for which the logp was found to be 4.29.

`Cc1ccc(C(=NOCc2cccc(NC(=O)CC(C)C)n2)c2nnnn2C)c(Cl)c1` [Example 40]: the logp worked out at 3.73. `CCCCCC(=O)Nc1cccc(CON=C(c2ccc(OC(F)(F)F)cc2C)c2nnnn2C)n1` (single isomer, unassigned) [Example 108] registered a logp of 4.39. Still for that read-out and setting: the same measure for `CCCCCOC(=O)Nc1cccc(CON=C(c2ccc(C)c(C(F)(F)F)c2)c2nnnn2C)n1` [Example 81]: 5.08. Molecule `Cc1cccc(C(=NOCc2cccc(N)n2)c2nnnn2C)c1F` [Example 138] returned a Log p of 1.42. Turning to `CCCCCC(=O)Nc1cccc(CON=C(c2cc(C)ccc2F)c2nnnn2C)n1` [Example 42], the logp stood at 3.83.

The series is the same for the next values; noted with them: reversed phase HPLC column, pH 2.7, 0.1% formic acid in water / acetonitrile gradient 10% to 95%.
Turning to `Cc1ccc(C(=NOCc2nccc(N)n2)c2nnnn2C)cc1C(F)(F)F` [Example 128, 2-{[({(1-methyl-1H-tetrazol-5-yl)[4-methyl-3-(trifluoromethyl)phenyl]methylidene}amino)oxy]methyl}pyrimidin-4-amine], the chromatographic logP amounted to 1.7. `CCCCOC(=O)Nc1ccnc(CON=C(c2ccc(C)c(C(F)(F)F)c2)c2nnnn2C)n1` [Example 8, butyl(2-{[({(1-methyl-1H-tetrazol-5-yl)[4-methyl-3-(trifluoromethyl)phenyl]methylidene}amino)oxy]methyl}pyrimidin-4-yl)carbamate] gave a chromatographic logP of 4.24.

Still in this series, the particulars now being: reversed phase HPLC column, pH 2.7, 0.1% formic acid in water / acetonitrile gradient 10% to 95%, read-out: Log p.
Consider `Cc1cc(C(=NOCc2csc(Br)n2)c2nnnn2C)ccc1F` [Example 161, N-[(2-bromo-1,3-thiazol-4-yl)methoxy]-1-(4-fluoro-3-methylphenyl)-1-(1-methyl-1H-tetrazol-5-yl)methanimine], for which the chromatographic logP worked out at 3.57.

On to `Cc1cc(C(=NOCc2csc(NC(=O)OC(C)(C)C)n2)c2nnnn2C)ccc1F` [Example 150, tert-butyl {4-[({[(4-fluoro-3-methylphenyl)(1-methyl-1H-tetrazol-5-yl)methylidene]amino}oxy)methyl]-1,3-thiazol-2-yl}carbamate], for which the chromatographic logP came to 3.89. Regarding `CCCC#Cc1nc(CON=C(c2ccc(F)c(C)c2)c2nnnn2C)cs1` [Example 153, 1-(4-fluoro-3-methylphenyl)-1-(1-methyl-1H-tetrazol-5-yl)-N-{[2-(pent-1-yn-1-yl)-1,3-thiazol-4-yl]methoxy}methanimine], the chromatographic logP worked out at 4.36. For `Cc1ccc(C(=NOCc2csc(N)n2)c2nnnn2C)cc1C(F)(F)F` [Example 145, 4-{[({(1-methyl-1H-tetrazol-5-yl)[4-methyl-3-(trifluoromethyl)phenyl]methylidene}amino)oxy]methyl}-1,3-thiazol-2-amine], the chromatographic logP was 2.22.
